Structures are written as SMILES.

In one assay the test system is F-1 cells. In words: IL-6 secretion by primary-cultured F-1 cells (CLEIA). Type of assay: cell-based, human. Particulars: AII (10 μM)+CV 10 μM; 24 hours; P<0.03 vs AII (10 μM). How it is done:
The primary-cultured stromal cells (F-1 cells) derived from a patient with prostatic hypertrophy were prepared as described below.
Tissues obtained from the patient were placed in a 50 mL centrifuge tube containing 20 mL of a medium (RPMI 1640, GIBCO 11835-030) supplemented with 10% (V/V) FBS (filtron) and mg/mL penicillin/streptomycin (GIBCO 15140-122), and allowed to stand at 4° C. for 1 hour or longer. Subsequently, the tissues were placed in a 10-cm dish, and cut into pieces of about 1 mm square. Blood vessels and the like were removed. At that time, to remove excessive blood (if necessary), the tissues were washed by adding 20 mL of the medium and centrifuging the mixture for 5 minutes at 1,000 rpm, followed by aspiration of the supernatant. […]
PrSC cells prepared in the same manner as Example 1, or F-1 or FT-FB cells prepared as described above were placed in a 6-well dish at 10^5 cells per well, cultured at 5% CO2 and 37° C. for 1 day (24 hours), and stimulated by the addition of TGFβ (1 ng/mL), TNFα (1 ng/mL), EGF (2.5 or 10 ng/mL), or angiotensin II (1 μM or 10 μM) (n=3). […] The culture media were collected 24 hours after adding the reagents, and the concentrations of IL-6 were determined by the CLEIA method.

Another assay has as its system PrSC cells. Description: IL-6 secretion by PrSC cells (CLEIA). It is filed as cell-based, human. Conditions: 24 hours. How it is done:
PrSC cells prepared in the same manner as Example 1, or F-1 or FT-FB cells prepared as described above were placed in a 6-well dish at 10^5 cells per well, cultured at 5% CO2 and 37° C. for 1 day (24 hours), and stimulated by the addition of TGFβ (1 ng/mL), TNFα (1 ng/mL), EGF (2.5 or 10 ng/mL), or angiotensin II (1 μM or 10 μM) (n=3). CV was added as the AIIR blocker to some wells 4 hours before adding the reagents. The culture media were collected 24 hours after adding the reagents, and the concentrations of IL-6 were determined by the CLEIA method.

Another assay concerns PC-3 tumor grafts. Description: In vivo effect on PC-3 tumor grafts transplanted on mice. Particulars: PC-3 cells transplanted; CV 5 or 10 mg/kg/day orally in drinking water, first to fifth week; male nude mice. As for the experimental part: The in vivo effect of the AIIR blocker was examined using the PC-3 human prostatic cancer cells with less expression of AT1 receptors (obtained from American Type Culture Collection, Rockville, Md., USA), and PrSC cells. PC-3 cells (5×10^6 cells) or a mixture of PC-3 and PrSC cells (2.5×10^6 cells each; a total of 5×10^6 cells) were injected subcutaneously in the back of male nude mice of 4 weeks old for forming tumors. Tumors having a diameter of about 5 mm were formed after one week. The above-described mice were divided into three groups: CV (5 mg/kg/day) administered group, CV (10 mg/kg/day) administered group, and non-administered group (Control) (n=4 for each group). The administered groups were orally administered with a specified dose of CV dissolved in drinking water every day from the first to the fifth week after the tumorigenic injection. The size of the tumor (heterograft) on each mouse was measured every week, and the volume was calculated using the formula: major axis×minor axis×minor axis/2. The volume was expressed as relative ratio to the volume in the first week as being 1. The results are shown in FIGS. 8 (PC-3 cells were transplanted) and 9 (a mixture of PC-3 and PrSC cells was transplanted).

With `CCOc1nc2cccc(C(=O)OC(C)OC(=O)OC3CCCCC3)c2n1Cc1ccc(-c2ccccc2-c2nnn[nH]2)cc1` (centres unmarked) [CV, 1-(cyclohexyloxycarbonyloxy)ethyl 2-ethoxy-1-[[2′-(1H-tetrazole-5-yl)biphenyl-4-yl]methyl]-1H-benzimidazole-7-carboxylate], the IL-6 secretion result was “significantly suppressed” with F-1 cells; “significantly suppressed” with PrSC cells (EGF (10 ng/mL)+CV (10 μM), P<0.05 vs EGF); “significantly suppressed” in the assay with PrSC cells (TGFβ (1 ng/mL)+CV 10 μM, P<0.04 vs TGFβ); “significantly suppressed” with PrSC cells (TNFα (1 ng/mL)+CV 10 μM, P<0.01 vs TNFα). In the assay on PC-3 tumor grafts, the “proliferation (relative tumor volume) vs Control” value is “suppression of proliferation was observed for the CV administered groups as compared to “Control”, but the effect was not so remarkable”.

For the origin of these results see patent US20070197562A1, “Remedies for prostatic hypertrophy” (Yokohama TLO Company, Ltd., priority 2004, published 2007).
